Measurements from patent US20080152719A1, “Multiparticulate Pharmaceutical Form Comprising Pellets With a Matrix Which Influences the Delivery of a Modulatory Substance” (ROEHM GMBH, priority 2005, published 2008).

Assay: Effect of modulating substances on active ingredient delivery in vitro
Type: physicochemical
Settings: for effect of modulating substance on rate of active ingredient delivery: in the multilayer pharmaceutical form; for activity of modulating substance in purified water versus phosphate buffer pH 6,8: in-vitro, purified water vs phosphate buffer pH 6,8 (Pharm. Eur.)
From the text: In the human and animal gastrointestinal tract the concentration of ions may vary to a certain extent and thus may influence the activity of the modulating substances. For reproducible in-vivo results substances having a modulating effect, which are not or only a little influenced by varying ionic strength are preferred.

[Cl-].[Na+] [sodium chloride]
effect of modulating substance on rate of active ingredient delivery: decrease the rate of active ingredient delivery | activity of modulating substance in purified water versus phosphate buffer pH 6,8: almost the same activity

O=C([O-])CCC(=O)[O-].[Na+].[Na+] [sodium succinate]
effect of modulating substance on rate of active ingredient delivery: increase the rate of active ingredient delivery | activity of modulating substance in purified water versus phosphate buffer pH 6,8: almost the same activity

O=C(O)CC(O)(CC(=O)O)C(=O)O [citric acid]
effect of modulating substance on rate of active ingredient delivery: increase the rate of active ingredient delivery | activity of modulating substance in purified water versus phosphate buffer pH 6,8: almost the same activity

CC(=O)[O-].[Na+] [Na acetate]
effect of modulating substance on rate of active ingredient delivery: increase the rate of active ingredient delivery

O=C([O-])CC(O)(CC(=O)[O-])C(=O)[O-].[Na+].[Na+].[Na+] [Na citrate]
effect of modulating substance on rate of active ingredient delivery: decrease the rate of active ingredient delivery
